Measured values taken from patent US20060057665A1, “Galectin-14 therapeutic molecule and uses thereof” (The University of Melbourne, priority 2001, published 2006).

What was measured:
[1] = tested on: GST-galectin-14; test: Saccharide inhibition of GST-galectin-14 induced hemagglutination; assay type: cell-based, rabbit; details: 0.28 μM GST-galectin-14; sugars 0.78-100 mM
Experimental: FIG. 14 is an image of a hemagglutination assay using GST-galectin-14 fusion protein. Agglutination of rabbit erythrocytes was assayed in a 96-well microtiter plate. Assays were conducted in the presence (2, 3, 4, and 5) or absence (1 and 6) of 0.28 μM recombinant GST-galectin-14, the minimum concentration to induce agglutination. Increasing concentrations (0.78-100 mM) of lactose (2), galactose (3), or N-acetyl-glucosamine (4) were added to inhibit agglutination. In the presence of GST-galectin-14 without sugar (5) the rabbit erythrocytes form a “mat” at the bottom of the wells. The assay buffer DES alone (1) and 3 μM rGST (6) were included as negative controls. Trypsin-treated, glutaraldehyde fixed rabbit erythrocytes were prepared and tested in an agglutination assay according to the method of Nowak et al. (Nowak et al. (1976) supra). Agglutination assays were performed in 96-well V-shaped microtiter plates with serial 2-fold dilutions of samples in 25 μl of DES (0.15 M NaCl, 2 mM EDTA, 2 mM dithiothreitol), 50 μl of 0.5% (w/v) BSA in 0.15 M NaCl and 25 μl of a 4% suspension of rabbit erythrocytes. The plates were shaken vigorously for 30 s, and agglutination was read after the plates had stood at room temperature for 1 h. Agglutinated erythrocytes formed a “mat” on the bottom of the well. For assessment of the inhibitory effects of saccharides, lactose, galactose, and N-acetyl-glucosamine were serially diluted in 25 μl of 0.15 M NaCl prior to the addition of recombinant protein in DES, 25 μl of 1% (w/v) BSA in 0.15 M NaCl, and 4% erythrocytes in PBS. The minimum concentration of GST-galectin-14 that gave mat formation (0.28 μM) was used in the saccharide inhibition assay. For assessment of the effects of antibody on GST-galectin-14 hemagglutination, ascites and supernatants from monoclonal antibodies and polyclonal rabbit sera all raised to recombinant galectin-14 were serially diluted in 25 μl of 0.15 M NaCl prior to the addition of recombinant protein in DES, 25 μl of 1% (w/v) BSA in 0.15 M NaCl, and 4% erythrocytes in PBS. […]

[2] = tested on: GST-galectin-14 binding to laminin; test: Lactose inhibition of GST-galectin-14 binding to immobilised laminin; details: 0.3 M lactose added
Experimental: FIG. 17 is an image of the saturation binding of GST-galectin-14 fusion protein to immobilised laminin. Laminin binding of GST-galectin-14 fusion protein was assayed using a solid-phase binding assay in a 96-well microtitre plate. Serial dilutions of GST-galectin-14 (▪) and GST (▴) were added to microtitre wells containing laminin. 0.3 M Lactose was added to GST-galectin-14 to inhibit binding (◯). The level of bound protein was monitored by the binding of rabbit anti-GST HRP antibody developed with TMB substrate and detected by a change in absorbance at 450 nm. Laminin binding activity was measured according to the method of Mazurek et al. with some modification. Briefly, the wells of a 96-well microtitre plate were coated with laminin from Engelbreth-Holm-Swarm murine sarcoma (Sigma) at 1 μg/100 μl of carbonate coating buffer (15 mM Na2CO3, 35 mM NaHCO3, pH 9.6) per well overnight at 4° C. Non-specific binding sites were blocked with 200 μl of 0.5% Tween 20 in PBS for 1 h. Plates were washed 3 times in 0.05% Tween 20 PBS and incubated with 50 μl serial dilutions of GST-galectin-14 or GST alone, diluted in 0.5% Tween 20 PBS, for 1.5 h at 37° C. Control wells contained 0.3 M lactose. […] The reaction was terminated with 100 μl 2 M sulphuric acid and the colour change monitored using a dual wavelength mode plate reader (Bio-tek instruments) at 450 nm, ref 690 nm.

[3] = tested on: rabbit erythrocytes; test: Hemagglutination assay on trypsin-treated, glutaraldehyde fixed rabbit erythrocytes; assay type: cell-based; details: negative control protein, 3 μM rGST
Experimental: Trypsin-treated, glutaraldehyde fixed rabbit erythrocytes were prepared and tested in an agglutination assay according to the method of Nowak et al. (Nowak et al. (1976) supra). Agglutination assays were performed in 96-well V-shaped microtiter plates with serial 2-fold dilutions of samples in 25 μl of DES (0.15 M NaCl, 2 mM EDTA, 2 mM dithiothreitol), 50 μl of 0.5% (w/v) BSA in 0.15 M NaCl and 25 μl of a 4% suspension of rabbit erythrocytes. The plates were shaken vigorously for 30 s, and agglutination was read after the plates had stood at room temperature for 1 h. Agglutinated erythrocytes formed a “mat” on the bottom of the well. For assessment of the inhibitory effects of saccharides, lactose, galactose, and N-acetyl-glucosamine were serially diluted in 25 μl of 0.15 M NaCl prior to the addition of recombinant protein in DES, 25 μl of 1% (w/v) BSA in 0.15 M NaCl, and 4% erythrocytes in PBS. The minimum concentration of GST-galectin-14 that gave mat formation (0.28 μM) was used in the saccharide inhibition assay. For assessment of the effects of antibody on GST-galectin-14 hemagglutination, ascites and supernatants from monoclonal antibodies and polyclonal rabbit sera all raised to recombinant galectin-14 were serially diluted in 25 μl of 0.15 M NaCl prior to the addition of recombinant protein in DES, 25 μl of 1% (w/v) BSA in 0.15 M NaCl, and 4% erythrocytes in PBS. […]

CC(=O)N[C@H]1C(O)O[C@H](CO)[C@@H](O)[C@@H]1O (some centres unmarked) [N-acetyl-glucosamine]
lowest sugar concentration at which inhibition of agglutination becomes evident [1]: 50 mM

O=C[C@H](O)[C@@H](O)[C@@H](O)[C@H](O)CO [galactose]
lowest sugar concentration at which inhibition of agglutination becomes evident [1]: 12.5 mM

OC[C@H]1O[C@@H](O[C@H]2[C@H](O)[C@@H](O)C(O)O[C@@H]2CO)[C@H](O)[C@@H](O)[C@H]1O (some centres unmarked) [lactose]
effect on binding of GST-galectin-14 to laminin [2]: reduced to the level of the control
lowest sugar concentration at which inhibition of agglutination becomes evident [1]: 0.78 mM

GST: GST moiety alone, used as negative control protein [reference compound]
induction of hemagglutination [3]: does not
